Data as given in PMC12814185, “Receptor-Mediated Shuttling of a D‑Amino Acid Peptide Achieves High Nanomolar Cytosolic Concentrations” (Journal of the American Chemical Society, 2025).

System: HEK293 cells
Experiment: Resazurin based cell viability assay, Nutlin-3a
Details: 72 h incubation, HEK293 and HEK293_CMKLR1-eYFP
Description: performed in DMEM with 10% FBS due to its higher pH buffering capacity compared to DMEM/F12 with […]
Calcium flux assay was performed with cells expressing CMKLR1 and the chimeric G protein Δ6Gαqi4myr.
The stably transfected COS-7_CMKLR1-eYFP_ Δ6Gαqi4myr cells were seeded at 25,000 cells per well into poly-ᴅ-lysine-coated 96-well plates (black µCLEAR, Greiner). The next day, cells were incubated with 2.3 µM Fluo-2-AM (Abcam) and 0.06% (v/v) Pluronic-F127 (Sigma) in assay buffer (2.5 mM probenecid (Sigma), 20 mM 4-(2-hydroxyethyl)-1-piperazineethanesulfonic acid (HEPES, Sigma) in Hanks' Balanced Salt Solution (HBSS, Biowest), pH 7.5) for 1 h. This solution was replaced by assay buffer, and basal Ca2+ signal (λex = 485 nm, λem = 525 nm) was measured for 20 s with a Flexstation 3 plate reader (Molecular Devices). Peptide dilutions were added, and the Ca2+ response was measured for 40 s. The maximum signal over baseline was calculated and normalized to peptide 1 (N3-cC9). Non-linear regression was performed using Prism 10 (GraphPad). Experiments were performed in technical duplicates and at least […]
Cells were then washed and a resazurin-based cell viability assay was performed. […] After 2h incubation, cell viability wa s measured using the fluorescence of resorufin (λex = 550 nm, λem = 595 nm). […]
Peptide internalization was evaluated by fluorescence microscopy. […]

Compound: COc1ccc(C2=N[C@@H](c3ccc(Cl)cc3)[C@@H](c3ccc(Cl)cc3)N2C(=O)N2CCNC(=O)C2)c(OC(C)C)c1 [nutlin-3a]
- cytotoxicity: noncytotoxic response
